Reference: patent US11827629B2, “CDGSH iron sulfur domain 2 activators and use thereof” (National Health Research Institutes, priority 2021, dated 2023)

Tested on: Cisd2 promoter with firefly luciferase reporter
Assay: Cisd2-luciferase reporter assay in HEK293-CISD2 cells
Type: cell-based
Details: Homo sapiens, 24 hours incubation, luciferase luminescence
Procedure: A typical in vitro screening method includes the following steps: (i) obtaining an initial level of Cisd2 in a batch of human embryonic kidney cells 293 (HEK-293 cells) that express Cisd2, (ii) treating the batch of HEK-293 cells with a compound of this invention, and (iii) analyzing the level of Cisd2 after the treatment, thereby determining the potency of the compound as a Cisd2 activator.
Compounds 1-109 were tested for increasing the level of Cisd2 in human embryonic kidney cells 293 (HEK293), a transfected cell line expressing Cisd2, using the Cisd2-luciferase reporter assay as follows.
The transfected HEK293 cells stably expressed Cisd2 promoter with firefly luciferase reporter (HEK293-CISD2). They were kept in Dulbecco's modified Eagle's medium (DMEM) (Gibco, New York, NY, USA). Culture medium was supplemented with 10% heat-inactivated fetal bovine serum (FBS), 2 mM L-Glutamine, 1 mM sodium pyruvate, 0.1% MEM Non-Essential Amino Acids, 1 ug/ml puromycin and 1% penicillin/streptomycin (HyClone, Logan, UT, USA). The cells were maintained at 37° C. in an incubator (Thermo Fisher Scientific, New York, NY, USA) with an atmosphere of 5% CO2. The stably transfected cells were seeded in 384-well plates at a density of 3×10^3 cells/well. After incubation with tested compounds at 37° C. for 24 hours, ONE-Glo™ Luciferase Assay System (Promega, Madison, WI, USA) was added at room temperature for 5 minutes to detect any luciferase activity. Luminescence intensity was registered using plate reader Victor^2V (PerkinElmer, Boston, MA, USA).
EC50 values in this table are presented in three classes, i.e., A: <1 μM, B: 1 μM-5 μM, and C: 5 μM-10 μM.

EC50 [nM] | SMILES
< 1000 | O=C(CSc1nccs1)N1Cc2ccccc2C1 [Compound 1, 1-(1,3-dihydro-2H-isoindol-2-yl)-2-(1,3-thiazol-2-ylsulfanyl)ethanone]
< 1000 | COc1ccc2c(c1)CN(C(=O)CSc1nccs1)C2 [Compound 2, 1-(5-methoxy-1,3-dihydro-2H-isoindol-2-yl)-2-(1,3-thiazol-2-ylsulfanyl)ethanone]
1000 to 5000 | O=C(CSc1nccs1)N1Cc2ccc(O)cc2C1 [Compound 3, 1-(5-hydroxy-1,3-dihydro-2H-isoindol-2-yl)-2-(1,3-thiazol-2-ylsulfanyl)ethanone]
< 1000 | O=C(CSc1nccs1)N1Cc2cccc(F)c2C1 [Compound 4, 1-(4-fluoro-1,3-dihydro-2H-isoindol-2-yl)-2-(1,3-thiazol-2-ylsulfanyl)ethanone]
< 1000 | O=C(CSc1nccs1)N1Cc2ccc(F)cc2C1 [Compound 5, 1-(5-fluoro-1,3-dihydro-2H-isoindol-2-yl)-2-(1,3-thiazol-2-ylsulfanyl)ethanone]
1000 to 5000 | O=C(CSc1nccs1)N1Cc2cc(F)c(F)cc2C1 [Compound 6, 1-(5,6-difluoro-1,3-dihydro-2H-isoindol-2-yl)-2-(1,3-thiazol-2-ylsulfanyl)ethanone]
< 1000 | O=C(CSc1nccs1)N1Cc2ccc(Cl)cc2C1 [Compound 7, 1-(5-chloro-1,3-dihydro-2H-isoindol-2-yl)-2-(1,3-thiazol-2-ylsulfanyl)ethanone]
1000 to 5000 | O=C(CSc1nccs1)N1Cc2cc(Cl)c(Cl)cc2C1 [Compound 8, 1-(5,6-dichloro-1,3-dihydro-2H-isoindol-2-yl)-2-(1,3-thiazol-2-ylsulfanyl)ethanone]
< 1000 | COC(=O)c1ccc2c(c1)CN(C(=O)CSc1nccs1)C2 [Compound 9, methyl 2-[(1,3-thiazol-2-ylsulfanyl)acetyl]-2,3-dihydro-1H-isoindole-5-carboxylate]
1000 to 5000 | O=C(CSc1nccs1)N1Cc2ccc([N+](=O)[O-])cc2C1 [Compound 10, 1-(5-nitro-1,3-dihydro-2H-isoindol-2-yl)-2-(1,3-thiazol-2-ylsulfanyl)ethanone]
< 1000 | Cc1cnc(SCC(=O)N2Cc3ccccc3C2)s1 [Compound 11, 1-(1,3-dihydro-2H-isoindol-2-yl)-2-[(5-methyl-1,3-thiazol-2-yl)sulfanyl]ethanone]
< 1000 | Cc1cnc(SCC(=O)N2Cc3ccc(F)cc3C2)s1 [Compound 12, 1-(5-fluoro-1,3-dihydro-2H-isoindol-2-yl)-2-[(5-methyl-1,3-thiazol-2-yl)sulfanyl]ethanone]
< 1000 | O=C(CSc1ccccn1)N1Cc2ccccc2C1 [Compound 13, 1-(1,3-dihydro-2H-isoindol-2-yl)-2-(pyridin-2-ylsulfanyl)ethanone]
< 1000 | COc1ccc2c(c1)CN(C(=O)CSc1ccccn1)C2 [Compound 14, 1-(5-methoxy-1,3-dihydro-2H-isoindol-2-yl)-2-(pyridin-2-ylsulfanyl)ethanone]
1000 to 5000 | Nc1ccc2c(c1)CN(C(=O)CSc1ccccn1)C2 [Compound 15, 1-(5-amino-1,3-dihydro-2H-isoindol-2-yl)-2-(pyridin-2-ylsulfanyl)ethanone]
< 1000 | O=C(CSc1ccccn1)N1Cc2ccc(F)cc2C1 [Compound 16, 1-(5-fluoro-1,3-dihydro-2H-isoindol-2-yl)-2-(pyridin-2-ylsulfanyl)ethanone]
1000 to 5000 | Cc1cccc(SCC(=O)N2Cc3ccccc3C2)n1 [Compound 17, 1-(1,3-dihydro-2H-isoindol-2-yl)-2-[(6-methylpyridin-2-yl)sulfanyl]ethanone]

EC50 [nM] | SMILES
1000 to 5000 | O=C(CSc1cccc(Cl)n1)N1Cc2ccccc2C1 [Compound 18, 2-[(6-chloropyridin-2-yl)sulfanyl]-1-(1,3-dihydro-2H-isoindol-2-yl)ethanone]
1000 to 5000 | Cc1nnc(SCC(=O)N2Cc3ccccc3C2)s1 [Compound 19, 1-(1,3-dihydro-2H-isoindol-2-yl)-2-[(5-methyl-1,3,4-thiadiazol-2-yl)sulfanyl]ethanone]
1000 to 5000 | Nc1nnc(SCC(=O)N2Cc3ccccc3C2)s1 [Compound 20, 2-[(5-amino-1,3,4-thiadiazol-2-yl)sulfanyl]-1-(1,3-dihydro-2H-isoindol-2-yl)ethanone]
5000 to 10000 | O=C(CSc1ncc[nH]1)N1Cc2ccccc2C1 [Compound 21, 1-(1,3-dihydro-2H-isoindol-2-yl)-2-(1H-imidazol-2-ylsulfanyl)ethanone]
5000 to 10000 | O=C(CSc1ncccn1)N1Cc2ccccc2C1 [Compound 22, 1-(1,3-dihydro-2H-isoindol-2-yl)-2-(pyrimidin-2-ylsulfanyl)ethanone]
< 1000 | O=C(CCSc1nccs1)N1Cc2ccccc2C1 [Compound 23, 1-(1,3-dihydro-2H-isoindol-2-yl)-3-(1,3-thiazol-2-ylsulfanyl)propan-1-one]
< 1000 | O=C(CCSc1ccccn1)N1Cc2ccc(F)cc2C1 [Compound 24, 1-(5-fluoro-1,3-dihydro-2H-isoindol-2-yl)-3-(pyridin-2-ylsulfanyl)propan-1-one]
1000 to 5000 | O=C(NCCSc1ccccn1)N1Cc2ccccc2C1 [Compound 25, N-[2-(pyridin-2-ylsulfanyl)ethyl]-1,3-dihydro-2H-isoindole-2-carboxamide]
< 1000 | O=C(N1Cc2ccc(F)cc2C1)C(F)(F)Sc1ccccn1 [Compound 26, 2,2-difluoro-1-(5-fluoro-1,3-dihydro-2H-isoindol-2-yl)-2-(pyridin-2-ylsulfanyl)ethanone]
1000 to 5000 | O=C(N1Cc2ccccc2C1)C(F)(F)CSc1ccccn1 [Compound 27, 1-(1,3-dihydro-2H-isoindol-2-yl)-2,2-difluoro-3-(pyridin-2-ylsulfanyl)propan-1-one]
< 1000 | COc1ccc2c(c1)CN(C(=O)CS(=O)(=O)c1nccs1)C2 [Compound 29, 1-(5-methoxy-1,3-dihydro-2H-isoindol-2-yl)-2-(1,3-thiazol-2-ylsulfonyl)ethanone]
< 1000 | O=C(CS(=O)(=O)c1nccs1)N1Cc2cccc(F)c2C1 [Compound 30, 1-(4-fluoro-1,3-dihydro-2H-isoindol-2-yl)-2-(1,3-thiazol-2-ylsulfonyl)ethanone]
< 1000 | O=C(CS(=O)(=O)c1nccs1)N1Cc2ccc(F)cc2C1 [Compound 31, 1-(5-fluoro-1,3-dihydro-2H-isoindol-2-yl)-2-(1,3-thiazol-2-ylsulfonyl)ethanone]
< 1000 | O=C(CS(=O)(=O)c1nccs1)N1Cc2cc(F)c(F)cc2C1 [Compound 32, 1-(5,6-difluoro-1,3-dihydro-2H-isoindol-2-yl)-2-(1,3-thiazol-2-ylsulfonyl)ethanone]
< 1000 | O=C(CS(=O)(=O)c1nccs1)N1Cc2ccc(Cl)cc2C1 [Compound 33, 1-(5-chloro-1,3-dihydro-2H-isoindol-2-yl)-2-(1,3-thiazol-2-ylsulfonyl)ethanone]
< 1000 | O=C(CS(=O)(=O)c1nccs1)N1Cc2cc(Cl)c(Cl)cc2C1 [Compound 34, 1-(5,6-dichloro-1,3-dihydro-2H-isoindol-2-yl)-2-(1,3-thiazol-2-ylsulfonyl)ethanone]
< 1000 | COC(=O)c1ccc2c(c1)CN(C(=O)CS(=O)(=O)c1nccs1)C2 [Compound 35, methyl 2-[(1,3-thiazol-2-ylsulfonyl)acetyl]-2,3-dihydro-1H-isoindole-5-carboxylate]
